According to PubChem BioAssay (NCI):
“And” between values parts separate entries of the source, which are not always exact repeats. Identical values can stand only once.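 Dose response: 5 concentrations. Exposure: 48 h. Format: 96-well plates. Endpoint: linear interpolation; highest concentration if not reached. GI50: concentration for 50% inhibition of growth. Definition used: TGI = concentration required for complete inhibition of growth.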

Assays:
Experiment in all cases: NCI anticancer screen, dose series, 48 h
786-0 renal = test system: 786-0 renal
A498 renal = test system: A498 renal
A549 NSCLC = test system: A549 NSCLC
ACHN renal = test system: ACHN renal
BT-549 breast = test system: BT-549 breast
CAKI-1 renal = test system: CAKI-1 renal
CCRF-CEM leukemia = test system: CCRF-CEM leukemia
COLO 205 colon = test system: COLO 205 colon
DU-145 prostate = test system: DU-145 prostate
EKVX NSCLC = test system: EKVX NSCLC
HCC-2998 colon = test system: HCC-2998 colon
HCT-116 colon = test system: HCT-116 colon
HCT-15 colon = test system: HCT-15 colon
HL-60(TB) leukemia = test system: HL-60(TB) leukemia
HOP-62 NSCLC = test system: HOP-62 NSCLC
HOP-92 NSCLC = test system: HOP-92 NSCLC
HS 578T breast = test system: HS 578T breast
HT29 colon = test system: HT29 colon
IGROV1 ovarian = test system: IGROV1 ovarian
K-562 leukemia = test system: K-562 leukemia
KM12 colon = test system: KM12 colon
LOX IMVI melanoma = test system: LOX IMVI melanoma
M14 melanoma = test system: M14 melanoma
MALME-3M melanoma = test system: MALME-3M melanoma
MCF7 breast = test system: MCF7 breast
MDA-MB-231 breast = test system: MDA-MB-231 breast
MDA-MB-435 = test system: MDA-MB-435
MDA-N = test system: MDA-N
MOLT-4 leukemia = test system: MOLT-4 leukemia
NCI-H226 lung = test system: NCI-H226 lung
NCI-H23 lung = test system: NCI-H23 lung
NCI-H460 lung = test system: NCI-H460 lung
NCI-H522 lung = test system: NCI-H522 lung
NCI/ADR-RES ovarian = test system: NCI/ADR-RES ovarian
OVCAR-3 ovarian = test system: OVCAR-3 ovarian
OVCAR-4 ovarian = test system: OVCAR-4 ovarian
OVCAR-5 ovarian = test system: OVCAR-5 ovarian
OVCAR-8 ovarian = test system: OVCAR-8 ovarian
PC-3 prostate = test system: PC-3 prostate
RPMI-8226 leukemia = test system: RPMI-8226 leukemia
RXF 393 renal = test system: RXF 393 renal
SF-268 CNS = test system: SF-268 CNS
SF-295 CNS = test system: SF-295 CNS
SF-539 CNS = test system: SF-539 CNS
SK-MEL-2 melanoma = test system: SK-MEL-2 melanoma
SK-MEL-28 melanoma = test system: SK-MEL-28 melanoma
SK-MEL-5 melanoma = test system: SK-MEL-5 melanoma
SK-OV-3 ovarian = test system: SK-OV-3 ovarian
SN12C renal = test system: SN12C renal
SNB-19 CNS = test system: SNB-19 CNS
SNB-75 CNS = test system: SNB-75 CNS
SR leukemia = test system: SR leukemia
SW-620 colon = test system: SW-620 colon
T-47D breast = test system: T-47D breast
TK-10 renal = test system: TK-10 renal
U251 CNS = test system: U251 CNS
UACC-257 melanoma = test system: UACC-257 melanoma
UACC-62 melanoma = test system: UACC-62 melanoma
UO-31 renal = test system: UO-31 renal

SMILES: Cc1cnc(/C=N\NC(N)=S)c2cccc(N)c12
- GI50 (786-0 renal): 0.867 µM and 0.501 µM
- GI50 (A498 renal): 2.04 µM
- TGI (A498 renal): > 100 µM
- GI50 (A549 NSCLC): 4.85 µM
- TGI (A549 NSCLC): > 100 µM
- GI50 (ACHN renal): 1.51 µM
- TGI (ACHN renal): > 30.9 µM
- GI50 (BT-549 breast): 3.52 µM
- TGI (BT-549 breast): > 100 µM
- GI50 (CAKI-1 renal): 2.51 µM
- TGI (CAKI-1 renal): > 57 µM
- GI50 (CCRF-CEM leukemia): 1.82 µM
- TGI (CCRF-CEM leukemia): > 24 µM
- GI50 (COLO 205 colon): 3.23 µM
- TGI (COLO 205 colon): > 100 µM
- GI50 (DU-145 prostate): 1.68 µM
- TGI (DU-145 prostate): > 100 µM
- GI50 (EKVX NSCLC): 3.15 µM
- TGI (EKVX NSCLC): > 100 µM and 53.6 µM
- TGI (HCC-2998 colon): > 100 µM
- GI50 (HCT-116 colon): 4.41 µM
- TGI (HCT-116 colon): > 100 µM and 28.3 µM
- GI50 (HCT-15 colon): 3.59 µM
- TGI (HCT-15 colon): > 100 µM
- GI50 (HL-60(TB) leukemia): 0.752 µM
- TGI (HL-60(TB) leukemia): 3.18 µM and 2.83 µM
- GI50 (HOP-62 NSCLC): 2.89 µM
- TGI (HOP-62 NSCLC): > 100 µM
- GI50 (HOP-92 NSCLC): 2.07 µM
- TGI (HOP-92 NSCLC): > 100 µM
- GI50 (HS 578T breast): > 58 µM
- TGI (HS 578T breast): > 100 µM
- GI50 (HT29 colon): 5.11 µM
- TGI (HT29 colon): > 100 µM
- GI50 (IGROV1 ovarian): 2.4 µM
- TGI (IGROV1 ovarian): > 100 µM
- GI50 (K-562 leukemia): 2.82 µM
- TGI (K-562 leukemia): > 100 µM
- GI50 (KM12 colon): 4.82 µM
- TGI (KM12 colon): > 100 µM
- GI50 (LOX IMVI melanoma): 2.32 µM
- TGI (LOX IMVI melanoma): > 100 µM
- GI50 (M14 melanoma): 1.83 µM and 0.384 µM
- TGI (M14 melanoma): 4.41 µM and 1.75 µM
- GI50 (MALME-3M melanoma): 3.53 µM
- TGI (MALME-3M melanoma): > 100 µM
- GI50 (MCF7 breast): 1.5 µM
- TGI (MCF7 breast): > 100 µM
- GI50 (MDA-MB-231 breast): 3.2 µM
- TGI (MDA-MB-231 breast): > 100 µM
- GI50 (MDA-MB-435): 3.9 µM
- TGI (MDA-MB-435): > 100 µM
- TGI (MDA-N): > 100 µM
- GI50 (MOLT-4 leukemia): 1.5 µM
- TGI (MOLT-4 leukemia): > 100 µM
- GI50 (NCI-H226 lung): 2.39 µM
- TGI (NCI-H226 lung): > 100 µM
- GI50 (NCI-H23 lung): 2.14 µM
- TGI (NCI-H23 lung): > 100 µM
- GI50 (NCI-H460 lung): 2.61 µM
- TGI (NCI-H460 lung): > 37.7 µM
- GI50 (NCI-H522 lung): 3.87 µM
- TGI (NCI-H522 lung): > 100 µM
- GI50 (NCI/ADR-RES ovarian): 3.53 µM
- TGI (NCI/ADR-RES ovarian): > 100 µM and 17.8 µM
- GI50 (OVCAR-3 ovarian): 3.03 µM
- TGI (OVCAR-3 ovarian): > 100 µM
- GI50 (OVCAR-4 ovarian): 3.4 µM
- TGI (OVCAR-4 ovarian): > 100 µM
- GI50 (OVCAR-5 ovarian): > 21.3 µM
- TGI (OVCAR-5 ovarian): > 100 µM
- GI50 (OVCAR-8 ovarian): 2.66 µM
- TGI (OVCAR-8 ovarian): > 100 µM
- GI50 (PC-3 prostate): > 22.7 µM
- TGI (PC-3 prostate): > 100 µM
- GI50 (RPMI-8226 leukemia): 2.1 µM
- TGI (RPMI-8226 leukemia): > 100 µM
- GI50 (RXF 393 renal): 2.47 µM
- TGI (RXF 393 renal): > 100 µM
- GI50 (SF-268 CNS): 1.51 µM
- TGI (SF-268 CNS): > 100 µM
- GI50 (SF-295 CNS): 2.36 µM
- TGI (SF-295 CNS): > 100 µM
- GI50 (SF-539 CNS): 0.596 µM
- TGI (SF-539 CNS): 3.7 µM and > 27.7 µM
- GI50 (SK-MEL-2 melanoma): > 29.2 µM
- TGI (SK-MEL-2 melanoma): > 100 µM
- TGI (SK-MEL-28 melanoma): > 100 µM
- GI50 (SK-MEL-5 melanoma): 1.25 µM
- GI50 (SK-OV-3 ovarian): 3.14 µM
- TGI (SK-OV-3 ovarian): > 100 µM
- GI50 (SN12C renal): 1.51 µM
- TGI (SN12C renal): > 26.5 µM and 4.35 µM
- GI50 (SNB-19 CNS): 3.42 µM
- TGI (SNB-19 CNS): > 100 µM
- GI50 (SNB-75 CNS): 1.35 µM
- TGI (SNB-75 CNS): > 27 µM and 9.48 µM
- GI50 (SR leukemia): 0.587 µM
- GI50 (SW-620 colon): 3.78 µM
- TGI (SW-620 colon): > 100 µM
- GI50 (T-47D breast): 2.49 µM
- TGI (T-47D breast): > 100 µM
- GI50 (TK-10 renal): 6.89 µM
- TGI (TK-10 renal): > 100 µM
- GI50 (U251 CNS): 2 µM
- TGI (U251 CNS): > 100 µM
- GI50 (UACC-257 melanoma): 4.81 µM
- TGI (UACC-257 melanoma): > 38.8 µM
- GI50 (UACC-62 melanoma): 1.13 µM
- TGI (UACC-62 melanoma): 9.26 µM and 6.67 µM
- GI50 (UO-31 renal): 1.88 µM
- TGI (UO-31 renal): 10.3 µM and 4.4 µM
